{"source": "patent CN110483432A", "about": "“一类丙烯酸类化合物及其制备方法、药物组合物和用途” (Shanghai Institute of Materia Medica of CAS, priority 2018, dated 2019)", "key": {"[1]": {"target": "CREB/CRTC2 (Homo sapiens, UniProt P16220+Q53ET0)", "sequence (P16220 whole entry, the tested form may be a part)": "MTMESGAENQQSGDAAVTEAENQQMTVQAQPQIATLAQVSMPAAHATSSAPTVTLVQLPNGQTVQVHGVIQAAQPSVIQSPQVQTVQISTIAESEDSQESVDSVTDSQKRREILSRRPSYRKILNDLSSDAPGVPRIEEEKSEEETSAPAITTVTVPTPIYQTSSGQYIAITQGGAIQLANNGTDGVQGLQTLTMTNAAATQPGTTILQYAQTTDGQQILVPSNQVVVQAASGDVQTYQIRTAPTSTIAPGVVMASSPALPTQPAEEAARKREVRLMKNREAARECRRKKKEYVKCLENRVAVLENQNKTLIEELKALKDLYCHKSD", "sequence (Q53ET0 whole entry, the tested form may be a part)": "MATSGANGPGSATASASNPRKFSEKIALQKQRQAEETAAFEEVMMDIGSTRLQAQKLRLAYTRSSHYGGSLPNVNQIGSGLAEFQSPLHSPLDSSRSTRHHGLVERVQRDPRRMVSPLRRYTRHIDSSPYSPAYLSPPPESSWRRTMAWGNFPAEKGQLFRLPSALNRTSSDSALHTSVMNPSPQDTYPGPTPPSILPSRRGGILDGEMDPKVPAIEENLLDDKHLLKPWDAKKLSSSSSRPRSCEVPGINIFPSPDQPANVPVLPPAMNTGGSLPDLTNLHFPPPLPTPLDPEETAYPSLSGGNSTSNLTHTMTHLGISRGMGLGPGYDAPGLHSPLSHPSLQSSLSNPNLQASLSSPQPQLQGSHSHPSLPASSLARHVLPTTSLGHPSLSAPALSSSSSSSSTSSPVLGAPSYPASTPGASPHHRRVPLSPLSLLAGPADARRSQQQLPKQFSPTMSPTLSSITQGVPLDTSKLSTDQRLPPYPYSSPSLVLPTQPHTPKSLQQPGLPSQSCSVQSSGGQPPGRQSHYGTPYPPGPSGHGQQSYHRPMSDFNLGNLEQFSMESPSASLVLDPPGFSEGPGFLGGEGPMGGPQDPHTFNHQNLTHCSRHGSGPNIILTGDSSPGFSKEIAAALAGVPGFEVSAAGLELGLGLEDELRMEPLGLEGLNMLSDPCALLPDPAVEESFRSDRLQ", "assay": "Mammalian two-hybrid (CREB-GAL4-BD / CRTC2-VP16-AD, Gal4-luciferase reporter) test of inhibition of CREB/CRTC2 protein interaction in HEK293 cells", "assay_type": "cell-based", "settings": "50 μM final concentration; HEK293 two-hybrid activation model (Forsklin); overnight; read-out: relative reporter gene activity (vs solvent control DMSO, set to 100%)"}, "[2]": {"assay": "Cytotoxicity test in HEK293 cells (CCK8)", "assay_type": "cell-based", "settings": "human, overnight, HEK293, CCK8 OD450, read-out: cell viability"}, "[3]": {"tested_on": "CREB phosphorylation (Ser133) (CREB的磷酸化(Ser133))", "assay": "Western blot of CREB phosphorylation (Ser133) in glucagon signalling pathway", "assay_type": "cell-based, mouse", "settings": "20 μM, 1 h preincubation, glucagon 100 nM, 30 min, primary hepatocytes or liver tissue"}}}
{"smiles": "O=C(/C=C/c1cccc(-c2ccccc2)c1)N1C(=O)OC[C@@H]1c1ccccc1", "note": "[A57, (S,E)-3-(3-([1,1’-联苯基]-3-基)丙烯酰)-4-苯基噁唑烷-2-酮]", "values": [{"measurement": "remaining activity at 50 µM", "setting": "[1]", "value": "< 30", "unit": "%"}, {"measurement": "viability at 50 µM", "setting": "[2]", "value": "~100", "unit": "%"}, {"measurement": "effect on glucagon-stimulated CREB phosphorylation level", "setting": "[3]", "value": "没有显著的影响"}]}
